Experimental data reported in ChEMBL document CHEMBL1139048, “Synthesis and in vitro antitumoral activity of new 3,5-dicyanopyridine derivatives” (2007).

Experiments:
Type in all cases: functional
HOP-92 = assay: Antiproliferative activity against human HOP92 cells after 48 hrs by SRB protein assay; conditions: HOP-92, 48 h
A498 = assay: Antiproliferative activity against human A498 cells after 48 hrs by SRB protein assay; conditions: A498, 48 h
IGROV-1 = assay: Antiproliferative activity against human IGROV1 cells after 48 hrs by SRB protein assay; conditions: IGROV-1, 48 h
SNB-75 = assay: Antiproliferative activity against human SNB75 cells after 48 hrs by SRB protein assay; conditions: SNB-75, 48 h
RXF 393 = assay: Antiproliferative activity against human RXF393 cells after 48 hrs by SRB protein assay; conditions: RXF 393, 48 h
T47D = assay: Antiproliferative activity against human T47D cells after 48 hrs by SRB protein assay
HCC 2998 = assay: Antiproliferative activity against human HCC2998 cells after 48 hrs by SRB protein assay; conditions: HCC 2998, 48 h
Malme-3M = assay: Antiproliferative activity against human MALME3M cells after 48 hrs by SRB protein assay
NCI-H522 = assay: Antiproliferative activity against human NCI-H522 cells after 48 hrs by SRB protein assay; conditions: NCI-H522, 48 h
SR = assay: Antiproliferative activity against human SR cells after 48 hrs by SRB protein assay
COLO 205 = assay: Antiproliferative activity against human COLO205 cells after 48 hrs by SRB protein assay; conditions: COLO 205, 48 h
CCRF-CEM = assay: Antiproliferative activity against human CCRF-CEM cells after 48 hrs by SRB protein assay
MOLT-4 = assay: Antiproliferative activity against human MOLT4 cells after 48 hrs by SRB protein assay; conditions: MOLT-4, 48 h
RPMI-8226 = assay: Antiproliferative activity against human RPMI8226 cells after 48 hrs by SRB protein assay; conditions: RPMI-8226, 48 h
NCI-H226 = assay: Antiproliferative activity against human NCI-H226 cells after 48 hrs by SRB protein assay; conditions: NCI-H226, 48 h
SF-295 = assay: Antiproliferative activity against human SF295 cells after 48 hrs by SRB protein assay; conditions: SF-295, 48 h
LOX IMVI = assay: Antiproliferative activity against human LOXIMVI cells after 48 hrs by SRB protein assay
SK-MEL-5 = assay: Antiproliferative activity against human SK-MEL-5 cells after 48 hrs by SRB protein assay; conditions: SK-MEL-5, 48 h
UACC-62 = assay: Antiproliferative activity against human UACC62 cells after 48 hrs by SRB protein assay; conditions: UACC-62, 48 h
OVCAR-3 = assay: Antiproliferative activity against human OVCAR-3 cells after 48 hrs by SRB protein assay; conditions: OVCAR-3, 48 h
ACHN = assay: Antiproliferative activity against human ACHN cells after 48 hrs by SRB protein assay
CAKI-1 = assay: Antiproliferative activity against human CAKI1 cells after 48 hrs by SRB protein assay; conditions: CAKI-1, 48 h
SN12C = assay: Antiproliferative activity against human SN12C cells after 48 hrs by SRB protein assay
MDA-MB-231 = assay: Antiproliferative activity against human MDA-MB-231 cells after 48 hrs by SRB protein assay; conditions: MDA-MB-231, 48 h
MDA-MB-435 = assay: Antiproliferative activity against human MDA-MB-435 cells after 48 hrs by SRB protein assay; conditions: MDA-MB-435, 48 h
HOP-62 = assay: Antiproliferative activity against human HOP62 cells after 48 hrs by SRB protein assay; conditions: HOP-62, 48 h
SK-OV-3 = assay: Antiproliferative activity against human SKOV3 cells after 48 hrs by SRB protein assay; conditions: SK-OV-3, 48 h
UO-31 = assay: Antiproliferative activity against human UO31 cells after 48 hrs by SRB protein assay; conditions: UO-31, 48 h
NCI-H460 = assay: Antiproliferative activity against human NCI-H460 cells after 48 hrs by SRB protein assay; conditions: NCI-H460, 48 h
MCF7 = assay: Antiproliferative activity against human MCF7 cells after 48 hrs by SRB protein assay; conditions: MCF7, 48 h
K562 = assay: Antiproliferative activity against human K562 cells after 48 hrs by SRB protein assay; conditions: K562, 48 h
HCT-116 = assay: Antiproliferative activity against human HCT116 cells after 48 hrs by SRB protein assay; conditions: HCT-116, 48 h
HT-29 = assay: Antiproliferative activity against human HT29 cells after 48 hrs by SRB protein assay; conditions: HT-29, 48 h
U-251 = assay: Antiproliferative activity against human U251 cells after 48 hrs by SRB protein assay; conditions: U-251, 48 h
M14 = assay: Antiproliferative activity against human M14 cells after 48 hrs by SRB protein assay; conditions: M14, 48 h
NCI/ADR-RES = assay: Antiproliferative activity against human NCI/ADR-RES cells after 48 hrs by SRB protein assay

## N#Cc1c(N)nc(N2CCOCC2)c(C#N)c1-c1ccc(Cl)cc1
HOP-92
  GI50: 8.91 µM
A498
  GI50: 8.13 µM
IGROV-1
  GI50: 14.1 µM
SNB-75
  GI50: 14.5 µM
RXF 393
  GI50: 0.479 µM

## N#Cc1c(N)nc(N2CCOCC2)c(C#N)c1-c1ccncc1
A498
  GI50: 18.6 µM
IGROV-1
  GI50: 12.3 µM
T47D
  GI50: 12.6 µM
HCC 2998
  GI50: 13.5 µM
Malme-3M
  GI50: 9.12 µM

## N#Cc1c(N)nc(N2CCOCC2)c(C#N)c1-c1ccccc1Cl
A498
  GI50: 2.29 µM
NCI-H522
  GI50: 0.0234 µM
NCI-H522; read-out: Log TGI (converted)
  TGI: 2.82 µM
SNB-75
  GI50: 0.417 µM

## COc1cc(-c2c(C#N)c(N)nc(N3CCOCC3)c2C#N)cc(OC)c1OC
SR
  GI50: 13.5 µM
COLO 205
  GI50: 5.62 µM
T47D
  GI50: 15.1 µM
SNB-75
  GI50: 1.62 µM
HCC 2998
  GI50: 5.89 µM

## N#Cc1c(N)nc(N2CCOCC2)c(C#N)c1-c1cccc(O)c1
A498
  GI50: 14.8 µM
IGROV-1
  GI50: 18.6 µM
SNB-75
  GI50: 17.4 µM

## Cc1ccc(-c2c(C#N)c(N)nc(N3CCOCC3)c2C#N)o1
SNB-75
  GI50: 2.75 µM

## N#Cc1c(N)nc(N2CCOCC2)c(C#N)c1-c1cccnc1
HCC 2998
  GI50: 8.71 µM

## N#Cc1c(NCc2ccccc2)nc(NCc2ccccc2)c(C#N)c1-c1cccc(O)c1
CCRF-CEM
  GI50: 3.39 µM
MOLT-4
  GI50: 3.31 µM
RPMI-8226
  GI50: 3.09 µM
SR
  GI50: 2.09 µM
HOP-92
  GI50: 2.51 µM
NCI-H226
  GI50: 2.88 µM
SF-295
  GI50: 2.95 µM
LOX IMVI
  GI50: 2.95 µM
SK-MEL-5
  GI50: 1.7 µM
UACC-62
  GI50: 2.09 µM
OVCAR-3
  GI50: 3.31 µM
A498
  GI50: 2 µM
ACHN
  GI50: 2.63 µM
CAKI-1
  GI50: 2.75 µM
SN12C
  GI50: 2.29 µM
MDA-MB-231
  GI50: 2.24 µM
MDA-MB-435
  GI50: 2.88 µM

## N#Cc1c(N)nc(N2CCSCC2)c(C#N)c1-c1ccc(O)cc1
SR
  GI50: 11.2 µM
HOP-92
  GI50: 10 µM
SNB-75
  GI50: 11 µM
HOP-62
  GI50: 12.6 µM

## COc1ccc(OC)c(-c2c(C#N)c(N)nc(N3CCOCC3)c2C#N)c1
SK-OV-3
  GI50: 12 µM
SNB-75
  GI50: 12.9 µM

## N#Cc1c(N)nc(N2CCOCC2)c(C#N)c1-c1ccc(Cl)cc1Cl
HOP-92
  GI50: 3.31 µM
A498
  GI50: 2.69 µM
MDA-MB-435
  GI50: 5.75 µM
NCI-H522
  GI50: 4.79 µM
IGROV-1
  GI50: 6.61 µM
SNB-75
  GI50: 6.31 µM
RXF 393
  GI50: 5.62 µM
UO-31
  GI50: 3.24 µM
NCI-H460
  GI50: 9.33 µM
MCF7
  GI50: 8.71 µM

## N#Cc1c(N)nc(N2CCOCC2)c(C#N)c1-c1ccccn1
NCI-H226
  GI50: 0.513 µM
UACC-62
  GI50: 0.0339 µM
SN12C
  GI50: 0.038 µM

## N#Cc1c(N)nc(N2CCOCC2)c(C#N)c1-c1c(Cl)cccc1Cl
OVCAR-3
  GI50: 2.4 µM
A498
  GI50: 3.72 µM
CAKI-1
  GI50: 2.24 µM
MDA-MB-231
  GI50: 3.55 µM
MDA-MB-435
  GI50: 1.55 µM
NCI-H522
  GI50: 2.34 µM
IGROV-1
  GI50: 2 µM
SK-OV-3
  GI50: 4.07 µM
T47D
  GI50: 3.39 µM
SNB-75
  GI50: 1.74 µM
HCC 2998
  GI50: 0.0182 µM
  LC50: 20 µM
HCC 2998; read-out: Log TGI (converted)
  TGI: 2.45 µM
MCF7
  GI50: 2.95 µM
K562
  GI50: 3.31 µM
HOP-62
  GI50: 3.55 µM
HCT-116
  GI50: 3.09 µM
HT-29
  GI50: 3.31 µM
U-251
  GI50: 3.89 µM
Malme-3M
  GI50: 3.72 µM
M14
  GI50: 2.45 µM
NCI/ADR-RES
  GI50: 2.34 µM

## COc1ccc(-c2c(C#N)c(N)nc(N3CCOCC3)c2C#N)cc1
A498
  GI50: 7.41 µM
NCI-H522
  GI50: 8.71 µM
COLO 205
  GI50: 2.14 µM
IGROV-1
  GI50: 3.09 µM
SK-OV-3
  GI50: 5.01 µM
T47D
  GI50: 0.832 µM
